Where “and” joins values, the source holds several entries; their conditions need not be identical. Equal entries are not always repeated. Entries after “also recorded” stand apart in the source; their conditions may differ.
Key:
BTK = BTK (Homo sapiens, UniProt Q06187); experiment: BTK degradation in MOLM-14 cells (western blot); assay type: cell-based; design: endogenous in cells; host or cells: MOLM-14
NanoLuc-CRBN fusion = target: T1, NanoLuc-CRBN fusion (Homo sapiens, UniProt Q96SW2); experiment: NanoBRET CRBN in-cell target engagement assay; assay type: cell-based; settings: Figure 3h, replicates
T1 construct: host or cells: HEK 293T/17
T1 sequence (Q96SW2 whole entry, the tested form may be a part): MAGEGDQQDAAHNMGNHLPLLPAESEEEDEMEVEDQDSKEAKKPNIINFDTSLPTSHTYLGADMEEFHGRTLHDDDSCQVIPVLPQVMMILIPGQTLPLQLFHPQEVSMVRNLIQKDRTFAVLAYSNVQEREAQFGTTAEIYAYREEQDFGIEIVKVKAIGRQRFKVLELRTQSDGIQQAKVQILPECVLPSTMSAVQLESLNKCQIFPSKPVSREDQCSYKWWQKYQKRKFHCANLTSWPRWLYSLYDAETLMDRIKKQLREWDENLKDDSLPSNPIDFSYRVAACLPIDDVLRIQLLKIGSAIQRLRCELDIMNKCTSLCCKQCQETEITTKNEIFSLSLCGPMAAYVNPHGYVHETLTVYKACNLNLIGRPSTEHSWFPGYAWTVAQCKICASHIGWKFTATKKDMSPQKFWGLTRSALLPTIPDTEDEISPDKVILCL
T1 sequence (Q16531 whole entry partner, the tested form may be a part): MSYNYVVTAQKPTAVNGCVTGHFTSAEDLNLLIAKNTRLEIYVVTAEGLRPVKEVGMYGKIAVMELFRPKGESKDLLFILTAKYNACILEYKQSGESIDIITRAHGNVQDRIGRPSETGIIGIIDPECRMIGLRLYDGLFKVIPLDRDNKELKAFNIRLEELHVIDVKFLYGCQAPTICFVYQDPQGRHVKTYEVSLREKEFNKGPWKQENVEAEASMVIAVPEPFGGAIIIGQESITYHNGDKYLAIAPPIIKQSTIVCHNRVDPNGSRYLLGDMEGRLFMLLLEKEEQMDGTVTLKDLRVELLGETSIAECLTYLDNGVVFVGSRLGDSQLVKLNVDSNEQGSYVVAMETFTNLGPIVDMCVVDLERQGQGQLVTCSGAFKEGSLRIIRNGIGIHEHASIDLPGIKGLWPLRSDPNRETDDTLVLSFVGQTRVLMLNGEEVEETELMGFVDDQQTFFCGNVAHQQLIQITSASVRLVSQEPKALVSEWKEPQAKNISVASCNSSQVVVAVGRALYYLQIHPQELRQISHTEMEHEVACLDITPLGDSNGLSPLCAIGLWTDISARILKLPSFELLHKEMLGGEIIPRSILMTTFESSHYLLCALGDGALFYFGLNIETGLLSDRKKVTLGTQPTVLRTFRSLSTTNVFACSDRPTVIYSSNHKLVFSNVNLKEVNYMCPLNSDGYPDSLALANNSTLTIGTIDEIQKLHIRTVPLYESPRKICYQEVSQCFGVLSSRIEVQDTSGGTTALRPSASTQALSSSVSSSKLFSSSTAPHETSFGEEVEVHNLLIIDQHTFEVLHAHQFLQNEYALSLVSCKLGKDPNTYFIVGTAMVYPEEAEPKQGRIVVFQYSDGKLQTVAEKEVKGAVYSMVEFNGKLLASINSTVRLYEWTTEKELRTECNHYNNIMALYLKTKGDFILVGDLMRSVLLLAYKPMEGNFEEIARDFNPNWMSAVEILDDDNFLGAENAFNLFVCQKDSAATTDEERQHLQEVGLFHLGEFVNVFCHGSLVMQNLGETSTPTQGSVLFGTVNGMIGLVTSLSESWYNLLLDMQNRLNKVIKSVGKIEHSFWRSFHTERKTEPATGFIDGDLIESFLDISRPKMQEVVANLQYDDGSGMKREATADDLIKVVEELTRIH
Experimental: The target engagement assay for BTK or CRBN was from Promega (BTK kit, Cat. No. N2500; CRBN kit, Cat. No. CS1810C136) and was performed according to the manufacture’s instruction with some modifications. […] After 2 h incubation, the 3X Nano-Glo® Substrate with NanoLuc® extracellular inhibitor were added to cells and developed for 3 min at room temperature. BRET signals were collected using a BioTek SYNERGY H1 microplate reader equipped with a 450/80-nm BP filter for donor emission and a 610-nm LP filter for acceptor emission. BRET Ratio was calculated with the equation: [(Acceptor sample/Donor sample)–(Acceptor no tracer control/Donor no tracer control)] × 1000. The IC50 of the compound against its BTK or CRBN tracer was calculated using GraphPad Prism software.

[1] = system: truncated Cereblon protein; experiment: CRBN binding assay (fluorescence quenching); settings: for Fluorescence Intensity: Supplementary Figure 11, replicates
Experimental: The Kd values of compounds to CRBN were measured based on fluorescence quenching after compounds binding to CRBN. […] All the compounds were dissolved in DMSO (10 mM) as stock solutions. The final drug concentration is 100 nM. […] Fluorescence intensity values for control wells (assay buffer only) were subtracted from each data point prior to analysis. The Kd was calculated using GraphPad Prism with the following equation curve fit. I=I0−If×Kd/P0+Kd+If

Jeko-1 = experiment: IC50 in MCL cell lines (Supplementary Table 2), Jeko-1; settings: for Cell Viability (%): Jeko-1 cells, replicate wells
Rec-1 = experiment: IC50 in MCL cell lines (Supplementary Table 2), Rec-1; settings: for Cell Viability (%): Rec-1 cells, replicate wells
Mino = experiment: IC50 in MCL cell lines (Supplementary Table 2), Mino; settings: Mino; triplicates
Maver-1 = experiment: IC50 in MCL cell lines (Supplementary Table 2), Maver-1; settings: Maver-1; triplicates
BTK C481S mutant = settings: cited from earlier work
MOLM-14 cells = experiment: AlamarBlue cell viability assay, MOLM-14; settings: for Cell viability, MOML-14: Supplementary Figure 7, replicates
Experimental: The IC50 was calculated using GraphPad Prism software with a four-parameter dose-response curve fit.

Sequence of BTK (Q06187 whole entry, the tested form may be a part): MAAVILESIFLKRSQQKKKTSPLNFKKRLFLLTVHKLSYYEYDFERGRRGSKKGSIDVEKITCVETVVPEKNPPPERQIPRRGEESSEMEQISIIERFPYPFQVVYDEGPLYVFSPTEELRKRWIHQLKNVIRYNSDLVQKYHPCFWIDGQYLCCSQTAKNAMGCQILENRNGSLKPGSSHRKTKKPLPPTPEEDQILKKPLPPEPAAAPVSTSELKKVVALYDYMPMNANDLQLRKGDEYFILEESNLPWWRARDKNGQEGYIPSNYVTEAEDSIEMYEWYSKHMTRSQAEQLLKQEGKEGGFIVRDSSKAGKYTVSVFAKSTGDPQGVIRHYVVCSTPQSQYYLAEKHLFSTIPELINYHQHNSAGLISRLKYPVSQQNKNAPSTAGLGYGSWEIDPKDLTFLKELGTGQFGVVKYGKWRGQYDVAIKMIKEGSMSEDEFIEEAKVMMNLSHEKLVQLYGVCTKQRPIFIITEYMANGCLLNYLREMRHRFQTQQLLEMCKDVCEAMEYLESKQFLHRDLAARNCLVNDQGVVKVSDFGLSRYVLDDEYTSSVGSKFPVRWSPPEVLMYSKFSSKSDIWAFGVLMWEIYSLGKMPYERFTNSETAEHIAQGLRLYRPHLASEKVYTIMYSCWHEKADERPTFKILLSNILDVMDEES

Nc1cccc2c1C(=O)N(C1CCC(=O)NC1=O)C2=O (stereo not shown) [Pomalidomide, pomalidomide, reference compound]
Quantification anti-BTK / anti-β-actin (BTK level vs DMSO) (BTK; Figure 2d, DMSO = 100 (mean)): 81.7787
BTK degradation (in words) (BTK; MOLM-14 cells, 200 nM, 24 h (Fig. 2d)): Neither RC-Ctrl, nor pomalidomide, nor a combination of both caused BTK degradation; also recorded: neither the RC-1 warhead, nor pomalidomide, nor a combination of both caused BTK degradation
NanoBRET(%) (NanoLuc-CRBN fusion; drug concentration 1.00E-05 M): 8.749% and 2.427%
NanoBRET(%) (NanoLuc-CRBN fusion; drug concentration 1.60E-08 M): 79.9835% and 62.224% and 75.9099%
NanoBRET(%) (NanoLuc-CRBN fusion; drug concentration 2.00E-06 M): 10.9943% and 16.7844%
NanoBRET(%) (NanoLuc-CRBN fusion; drug concentration 3.20E-09 M): 86.2914% and 88.5513% and 84.0314%
NanoBRET(%) (NanoLuc-CRBN fusion; drug concentration 4.00E-07 M): 54.7588% and 35.141% and 58.1892%
NanoBRET(%) (NanoLuc-CRBN fusion; drug concentration 8.00E-08 M): 88.9359% and 73.8405% and 79.0012%
Fluorescence Intensity ([1]; CRBN 0 μM): 9876.2 and 9503.2 and 9587.2
Fluorescence Intensity ([1]; CRBN 0.734375 μM): 7603.2 and 7913.2 and 7829.2
Fluorescence Intensity ([1]; CRBN 1.46875 μM): 6654.2 and 6940.2 and 6542.2
Fluorescence Intensity ([1]; CRBN 2.9375 μM): 5927.2 and 5996.2 and 5981.2
Fluorescence Intensity ([1]; CRBN 5.875 μM): 5201.2 and 5168.2 and 5152.2
Fluorescence Intensity ([1]; CRBN 11.75 μM): 4654.2 and 4688.2 and 4502.2
Fluorescence Intensity ([1]; CRBN 23.5 μM): 4529.2 and 4338.2 and 4613.2
Kd ([1]; truncated Cereblon protein, fluorescence quenching, triplicates): 1400 nM

C=CC(=O)N1CCC[C@@H](n2nc(-c3ccc(Oc4ccccc4)cc3)c3c(N)ncnc32)C1 [IRC-Ctrl, ibrutinib, reference compound]
IC50 (Jeko-1; Jeko-1, triplicates): 300 nM
Cell Viability (%) (Jeko-1; 1.50E-05 M): 2.151% and 2.02% and 1.9313%
Cell Viability (%) (Jeko-1; 1.88E-06 M): 2.568% and 2.43% and 2.412%
Cell Viability (%) (Jeko-1; 3.00E-05 M): 2.333% and 2.338% and 2.111%
Cell Viability (%) (Jeko-1; 3.75E-06 M): 2.338% and 2.397% and 2.358%
Cell Viability (%) (Jeko-1; 4.69E-07 M): 5.039% and 20.4969% and 18.3979%
Cell Viability (%) (Jeko-1; 7.50E-06 M): 2.252% and 2.304% and 1.966%
Cell Viability (%) (Jeko-1; 9.38E-07 M): 2.5504% and 5.547% and 2.871%
IC50 (Rec-1; Rec-1, triplicates): 6200 nM
Cell Viability (%) (Rec-1; 1.50E-05 M): 8.535% and 9.796% and 10.5906%
Cell Viability (%) (Rec-1; 1.88E-06 M): 74.3495% and 75.6404% and 76.9194%
Cell Viability (%) (Rec-1; 3.00E-05 M): 2.364% and 2.247% and 2.265%
Cell Viability (%) (Rec-1; 3.75E-06 M): 66.2063%
Cell Viability (%) (Rec-1; 4.69E-07 M): 84.8624% and 81.0762% and 81.5842%
Cell Viability (%) (Rec-1; 7.50E-06 M): 44.5947% and 45.7572% and 45.7871%
Cell Viability (%) (Rec-1; 9.38E-07 M): 81.9548% and 81.1808% and 88.2512%
IC50 (Mino): 3800 nM
IC50 (Maver-1): 5400 nM
IC50 (BTK C481S mutant): 4.6 nM
IC50 (MOLM-14 cells; Homo sapiens, MOLM-14, 72 h, read-out: Cell viability IC50): 330 nM
Cell viability, MOML-14 (MOLM-14 cells; drug concentration 1.00E-05 M): 2.829 and 3.671 and 10.6075 and 4.63 and 7.964
Cell viability, MOML-14 (MOLM-14 cells; drug concentration 1.60E-08 M): 78.5123 and 71.6258 and 103.431 and 81.3409
Cell viability, MOML-14 (MOLM-14 cells; drug concentration 2.00E-06 M): 11.3315 and 13.8066 and 22.1242 and 13.453 and 22.4778
Cell viability, MOML-14 (MOLM-14 cells; drug concentration 3.20E-09 M): 74.4713 and 69.3023 and 89.0692 and 86.5941 and 80.2465
Cell viability, MOML-14 (MOLM-14 cells; drug concentration 4.00E-07 M): 35.4256 and 44.6356 and 55.26 and 47.599 and 43.2718
Cell viability, MOML-14 (MOLM-14 cells; drug concentration 6.40E-10 M): 87.7559 and 71.8279 and 83.9002
Cell viability, MOML-14 (MOLM-14 cells; drug concentration 8.00E-08 M): 71.3059 and 57.3983 and 86.3921 and 79.7919 and 76.879

Reference: paper PMC7450057, “Enhancing intracellular accumulation and target engagement of PROTACs with reversible covalent chemistry” (Nature Communications, 2020)
